Legend:
[1] = tested on: osteosarcoma cell line (U2OS); assay: Western blotting test of cell extinction and damage markers (Caspase-3, PARP); assay type: cell-based; conditions: U2OS osteosarcoma cells; 10 μM (FIG. 15)
Protocol: (§1) After a certain period of time, the degree of cell extinction is evaluated by examining the degree of expression of extinction and damage of a specific factor by using Western Blotting Test and the result is shown in FIG. 15.

breast epithelial cell = assay: Trypan blue exclusion test (cytotoxicity); assay type: cell-based; conditions: both test concentrations 1 μM and 10 μM (FIG. 14)
Protocol: (§2) In the presence of a test compound or a comparative compound, a cell line is cultured for a certain period of time (about 72 hours) and then a cytotoxicity test is conducted. As a control group, a blank test is conducted in the same manner as above without adding any compound including the test compound and the comparative compound.

[2] = tested on: breast epithelial cell line; assay: Cytomorphology test (cytotoxicity); assay type: cell-based; conditions: breast epithelial cells, cultured about 72 hours, microscopic examination (FIG. 13)
Protocol: as §2

[3] = tested on: breast epithelial cell line; assay: Western blotting test of cell extinction and damage markers (Caspase-3, PARP); assay type: cell-based; conditions: 1, 10 and 100 μM (FIG. 15)
Protocol: as §1

[4] = in ethanol; reference standard; cited from earlier work
[5] = Fluorescence quantum yield (relative vs rhodamin 6G; absolute PL quantum yield system); assay type: physicochemical; conditions: solvent: Ref. Ex. 1 methanol, 2 ethanol, 3 n-propanol, 4 iso-propanol, 5 n-butanol, 6 DMSO; for Absolute quantum yield: absolute PL quantum yield measurement system; for Relative quantum yield: relative to rhodamin 6G
Protocol: The absolute quantum yield is determined by using an absolute PL quantum yield measurement system (QE-1000, Otsuka Electronics, Japan). The relative quantum yield is determined by measuring the absorbance and emission intensity for each five concentrations for one solvent, determining the slope of said measured values, and comparing the slope with that of rhodamin 6G (the quantum yield of rhodamin 6G in ethanol is 0.95).
(§3) Except for conducting the photochemical reaction in the presence of an organic solvent such as ethanol (Reference Example 2), n-propanol (Reference Example 3), iso-propanol (Reference Example 4), n- butanol (Reference Example 5) or DMSO (Reference Example 6), respectively, the fluorescent compound is obtained from trans-resveratrol in the same manner as Reference Example 1.

[6] = Excitation and emission maxima by fluorescent spectrophotometer; assay type: physicochemical; conditions: solvent: Ref. Ex. 1 methanol, 2 ethanol, 3 n-propanol, 4 iso-propanol, 5 n-butanol, 6 DMSO
Protocol: UV absorption of the final fluorescent compound is determined by using a UV-VISIBLE spectrophotometer (Perkin Elmer, USA). Maximum values of excitation and emission are determined by using a fluorescent spectrophotometer (PTI, USA).
as §3

[7] = Irradiation with natural light (photochemical stability); assay type: physicochemical; conditions: natural light for a long period of time
From the text: Meanwhile, prior art (PCT/EP01/06103) discloses using polydatin of formula 5 above as sunblock.

[8] = listed as Reference Example 2, in Ethanol solvent
[9] = listed as Reference Example 3, in n-Propanol solvent
[10] = listed as Reference Example 4, in iso-Propanol solvent
[11] = listed as Reference Example 5, in n-Butanol solvent
[12] = listed as Reference Example 6, in DMSO solvent

COc1cc([C@@H]2c3cc4c(cc3[C@@H](O[C@@H]3O[C@@H]5CO[C@@H](C)O[C@H]5[C@H](O)[C@H]3O)[C@H]3COC(=O)[C@H]23)OCO4)cc(OC)c1O [Etoposide]
Western blot peaks resulting from cell extinction and damage [1]: significantly remarkable peak at 17 kDa, 19 kDa and 89 kDa positions

CC(=O)/C=C/c1ccc2cc(O[C@@H]3O[C@H](CO)[C@@H](O)[C@H](O)[C@H]3O)cc(O)c2c1 [Resveratrone glucoside, (E)-4-(8-hydroxy-6-(((2S,3R,4S,5S,6R)-3,4,5-trihydroxy-6-(hydroxymethyl)tetrahydro-2H-pyran-2-yl)oxy)naphthalen-2-yl)but-3-en-2-one]
number of cells alive vs control group (breast epithelial cell): number of cells similar to that of the control group | cytomorphology and number change of the cultured cell vs control group [2]: no significant difference from the control group | Western blot peaks resulting from cell extinction and damage [3]: no peak at 17 kDa, 19 kDa and 89 kDa positions

CCN=c1cc2oc3cc(NCC)c(C)cc3c(-c3ccccc3C(=O)OCC)c-2cc1C.Cl [rhodamin 6G]
quantum yield [4]: 0.95

CC(=O)/C=C/c1ccc2cc(O)cc(O)c2c1 [Reference Example 1, (E)-4-(6,8-dihydroxynaphthalen-2-yl) but-3-en-2-one]
Absolute quantum yield [5]: 0.058 | Absolute quantum yield [5, 8]: 0.145 | Absolute quantum yield [5, 9]: 0.212 | Absolute quantum yield [5, 10]: 0.311 | Absolute quantum yield [5, 11]: 0.254 | Absolute quantum yield [5, 12]: 0.439 | Relative quantum yield [5]: 0.035 | Relative quantum yield [5, 8]: 0.103 | Relative quantum yield [5, 9]: 0.155 | Relative quantum yield [5, 10]: 0.247 | Relative quantum yield [5, 11]: 0.200 | Relative quantum yield [5, 12]: 0.523 | Emission [6]: 547 nm | Excitation [6]: 390 nm | Emission [6, 8]: 540 nm | Emission [6, 9]: 534 nm | Emission [6, 10]: 525 nm | Emission [6, 11]: 536 nm | Emission [6, 12]: 497 nm

OC[C@H]1O[C@@H](Oc2cc(O)cc(/C=C/c3ccc(O)cc3)c2)[C@H](O)[C@@H](O)[C@@H]1O [polydatin, resveratrol 3-O-β-glucoside]
photochemical reaction product after irradiation [7]: any photochemical reaction product could not be found

From patent USRE49223E1, “Water-soluble fluorescence compound and method for preparing the same” (SNU R&DB FOUNDATION, priority 2011, dated 2022)
